From patent US20020006661A1, “Controlling gene expression in living cells” (University of Massachusetts, a Massachusetts corporation, priority 1998, published 2002)

Columns and labels:
[1] = system: H2-RSETA mRNA (H10 and H19 in tandem in the 5′ UTR); assay: Wheat germ in vitro translation of H2-RSETA mRNA; assay type: biochemical; conditions: 0, 40 or 80 μM H33258, wheat germ extract
Procedure: (§1) FIG. 10. is a histogram summarizing SDS-PAGE densitometry data from in vitro translation experiments. RNA transcripts containing 0 (RSETA) or 2 copies of an H33258 aptamer (H2-RSETA) were translated in a wheat germ extract in the presence of ^35S-methionine and 0, 40 or 80 μM H33258. Protein products were subjected to SDS-PAGE and quantitated by densitometry. For each transcript, translation in the absence of drug was set at 100%.
(§2) In vitro transcription reactions contained 5 μg pRSETA (or RSET derivative), 0.5 mM m^7G(5′)G, 0.5 mM ATP, CTP, UTP, 0.05 mM GTP, 10 mM DTT and 40 U T7 RNA polymerase in 50 μl of a solution of 40 mM Tris-HCl pH 7.5, 6 mM MgCl2, 2 mM spermidine, 10 mM NaCl. Following incubation for 1 hour at 37° C., RNA was purified by phenol:chloroform extraction, ethanol precipitation and resuspended in 30 μl H2O. Translation reactions were carried out in 10 μl containing 5 μl wheat germ extract, 0.8 μl 1 mM amino acid mixture (minus methionine), 2 μl of RNA transcript (described above), 0.5 μl [^35S] methionine (1200 Ci/mmole) and 0-80 μM drug. Reactions were incubated at 25{square root} C. for 15 minutes and terminated by addition of 2X sample loading buffer. Translation products were separated by electrophoresis on an 18% polyacrylamide gel, visualized by autoradiography, and quantitated by densitometry.

[2] = cited from earlier work; for Cell permeability: known
[3] = known; cited from earlier work
[4] = system: SVH2β Gal (β-galactosidase reporter with H10 and H19 in the 5′ UTR) in CHO cells; assay: β-galactosidase reporter expression in transfected CHO cells, SVH2β gal; assay type: cell-based; conditions: 24 hours, 0, 5 or 10 μM H33342, dose-dependent
Procedure: (§3) FIG. 11 is a histogram summarizing data from in vivo expression experiments. H33258 aptamers H10 and H19 were cloned in tandem into the 5′ UTR of a β-galactosidase reporter gene (SVβ gal; Promega) to generate SVH2β gal. CHO cells were cotransfected with 1 μg SVβ gal or SVH2β gal and 1 μg of a luciferase expression vector (pGL3). Transfected cells were grown in the presence of […]. Twenty-four hours after transfection, cell extracts were prepared, and β-galactosidase and luciferase activities were determined.
(§4) To test whether this small molecule-aptamer interaction could be used to control gene expression in vivo, one copy of H10 and H19 were inserted into the 5′ UTR of a mammalian β-galactosidase expression plasmid SVβ Gal (Promega), generating the construct SVH2β gal. CHO cells were cotransfected with SVH2β Gal or as a control the parental vector, SVβ Gal, and a luciferase reporter gene to provide an internal control. Following transfection, cells were grown for 24 hours in the presence of 0, 5 or 10 μM H33342 and analyzed for β-galactosidase and luciferase activities.
(§5) H33258 aptamers, H10 and H19, were cloned in tandem into the 5′ UTR of a β-galactosidase reporter gene (SVβ gal, Promega) to generate SVH2β gal. […] 24 hours post-transfection cell extracts were prepared and β-galactosidase and luciferase activities were determined.

[5] = system: parental expression vector SVβ Gal in CHO cells; assay: β-galactosidase reporter expression in transfected CHO cells, parental SVβ Gal; assay type: cell-based; conditions: 24 hours, 0, 5 or 10 μM H33342, data not shown
Procedure: as §3, §4, §5

[6] = system: luciferase reporter (pGL3) in CHO cells; assay: Luciferase internal control reporter in transfected CHO cells; assay type: cell-based; conditions: 24 hours, 0, 5 or 10 μM H33342
Procedure: as §3, §4, §5

control RSETA mRNA = assay: Wheat germ in vitro translation of control RSETA mRNA; assay type: biochemical; conditions: all concentrations tested, wheat germ extract
Procedure: (§6) FIG. 4. is a histogram showing percent translation of mRNA in a wheat germ in vitro translation system containing 0 (RSETA) or 3 copies of the tob aptamer cloned into the 5′ UTR of RSETA (tob3-RSETA) and 0, 30 or 60 μM tobramycin or kanamycin A. Protein products were analyzed by SDS-PAGE and quantitated by densitometry. For each transcript, translation in the absence of drug was set at 100%.
as §1
A test mRNA was constructed containing three copies of the tob aptamer inserted in the 5′ UTR of RSETA (tob3-RSETA). […]
In vitro transcription reactions contained 5 μg pRSETA (or RSET derivative), 0.5 mM m^7G(5′)G, 0.5 mM ATP, CTP, UTP, 0.05 mM GTP, 10 mM DTT and 40 U T7 RNA polymerase in 50 μl of a solution of 40 mM Tris-HCl pH 7.5, 6 mM MgCl2, 2 mM spermidine, 10 mM NaCl. […] Translation products were separated by electrophoresis on an 18% polyacrylamide gel, visualized by autoradiography, and quantitated by densitometry.

[7] = system: tob3-RSETA mRNA (three copies of the tob aptamer in the 5′ UTR); assay: Wheat germ in vitro translation of tob3-RSETA mRNA; assay type: biochemical; conditions: 0, 30 or 60 μM drug, wheat germ extract
Procedure: as §6
A test mRNA was constructed containing three copies of the tob aptamer inserted in the 5′ UTR of RSETA (tob3-RSETA). In vitro translation reactions were performed in the presence of 0, 30 or 60 μM tobramycin or kanamycin A.
as §2, with “Reactions were incubated at 25{square root} C. for 15 minutes and terminated by addition of 2X sample loading buffer.” left out

[8] = system: E. coli BL-21 cells expressing RSETA, kan or tob aptamers; assay: Growth of E. coli expressing antibiotic aptamers in antibiotic-containing medium; assay type: cell-based; conditions: 10 mM antibiotic, liquid culture; for Growth of bl-kan1 (kanamycin aptamer) in the presence of antibiotic: strain bl-kan1; for Growth of bl-tob1 (tobramycin aptamer) in the presence of antibiotic: strain bl-tob1
Procedure: FIGS. 3A-3E are growth curves of E. coli expressing antibiotic aptamers. Overnight cultures of BL-21 cells transformed with plasmids expressing RSETA, tob1, tob3, kan1 or kan3 were diluted 100-fold into medium containing the indicated concentration of aminoglycoside antibiotic. Optical density (660 nm) was measured at fixed intervals over 8 hours of growth at 37° C.
As an initial test for the ability of these aptamers to function in vivo, we asked whether following expression in E. coli the aptamer would sequester the cognate antibiotic thereby conferring a specific drug-resistant phenotype. Toward this end, one or three copies of the kanamycin A (kan) or the tobramycin (tob) aptamer were cloned into the T7 RNA polymerase-driven expression vector PRSETA (Invitrogen), and transformed into a bacterial strain containing an IPTG-inducible T7 RNA polymerase. Bacterial strains were grown in liquid culture overnight and then diluted into antibiotic-containing medium. In the absence of drug, bacterial strains expressing no aptamer (bl-RSETA), the kanamycin aptamer (bl-kan1), or the tobramycin aptamer (bl-tob1) grew similarly (FIG. 3A). […] The partial-resistance of bl-kan1 to tobramycin (our unpublished data).

| Structure (SMILES) | In vitro translation of H2-RSETA mRNA [1] | Cell permeability [2] | Toxicity [3] | Reduction of β-galactosidase activity from SVH2β Gal [4] | Expression of parental expression vector SVβ Gal [5] | Cell permeability relative to H33258 [2] | Expression of the luciferase reporter [6] | In vitro translation of control RSETA mRNA (control RSETA mRNA) | In vitro translation of tob3-RSETA mRNA [7] | Growth of bl-RSETA (no aptamer) in the presence of antibiotic ([8]; strain bl-RSETA) | Growth of bl-kan1 (kanamycin aptamer) in the presence of antibiotic [8] | Growth of bl-tob1 (tobramycin aptamer) in the presence of antibiotic [8] |
| --- | --- | --- | --- | --- | --- | --- | --- | --- | --- | --- | --- | --- |
| CN1CCN(c2ccc3[nH]c(-c4ccc5[nH]c(-c6ccc(O)cc6)nc5c4)nc3c2)CC1 [H33258] | inhibited in vitro translation of H2-RSETA | cell-permeable | relatively non-toxic |  |  |  |  |  |  |  |  |  |
| CCOc1ccc(-c2nc3ccc(-c4nc5ccc(N6CCN(C)CC6)cc5[nH]4)cc3[nH]2)cc1 [H33342] |  | cell-permeable | relatively non-toxic | greater than 90% | not inhibited | approximately ten-fold more cell-permeable | not inhibited |  |  |  |  |  |
| NC[C@H]1O[C@H](O[C@H]2[C@H](O)[C@@H](O[C@H]3O[C@H](CO)[C@@H](O)[C@H](N)[C@H]3O)[C@H](N)C[C@@H]2N)[C@H](O)[C@@H](O)[C@@H]1O [kanamycin A] |  |  |  |  |  |  |  | unaffected | not inhibited | neglible | grew to saturation | neglible |
| NC[C@H]1O[C@H](O[C@H]2[C@H](O)[C@@H](O[C@H]3O[C@H](CO)[C@@H](O)[C@H](N)[C@H]3O)[C@H](N)C[C@@H]2N)[C@H](N)C[C@@H]1O [tobramycin] |  |  |  |  |  |  |  | unaffected | inhibited in vitro translation of the tob3-RSETA mRNA in a dose-dependent fashion |  | grew to a sub-saturating level | grew to saturation |
